Laboratory results reported in patent EP1029854A1, “Oxazolidinones and their use as antibacterial agents” (BAYER AG, priority 1999, dated 2000).
In brackets after ≈: the same amount, converted by molar mass.

Tested on: S.aureus 133
Experiment: MIC (MHK) determination by microdilution method in BH medium
Format: cell-based
Conditions: for Wirksameres Diastereomer: qualitative comparison with Diastereomer 2 of the same example, test not named in the heading, presumably the MIC test; for MIC: Staphylococcus aureus, S.aureus 133, microdilution in BH-Medium, 37°C, read after ca. 20 hours or 3 to 5 days, lowest concentration with no visible growth, samples Diastereomer 1 /Diastereomer 2 = 100:1, read-out: MHK-Werte
Description: Die MHK-Werte wurden mit Hilfe der Mikrodilutionsmethode in BH-Medium bestimmt. Jede Prüfsubstanz wurde in DMSO gelöst. In der Mikrotiterplatte wurde durch serielle Verdünnung eine Konzentrationsreihe der Prüfsubstanzen angelegt. Zur Inokulation wurden Übernachtkulturen der Erreger verwandt, die zuvor im Nährmedium 1:250 verdünnt wurden. Zu 100 µl der verdünnten, wirkstoffhaltigen Nährlösungen wurden je 100 µl Inokulationslösung gegeben.
Die Mikrotiterplatten wurden bei 37°C bebrütet und nach ca. 20 Stunden oder nach 3 bis 5 Tagen abgelesen. Der MHK-Wert (µg/ml) gibt die niedrigste Wirkstoffkonzentration an, bei der kein Wachstum zu erkennen war.

For `C=CC(O)[C@H]1CN(c2ccc3c(c2)OCc2nccn2-3)C(=O)O1` (single isomer, unassigned) [Beispiel 1 Diastereomer 1], the “Wirksameres Diastereomer” value was “Wirksameres Diastereomer”.

`C=CC(O)[C@H]1CN(c2ccc3c(c2)OCc2nccn2-3)C(=O)O1` (single isomer, unassigned) [Beispiel 1] was tested, and the MIC was 1.5 µg/mL (≈ 4.79 µM).

For `C#CC(O)[C@H]1CN(c2ccc3c(c2)OCc2nccn2-3)C(=O)O1` (single isomer, unassigned) [Beispiel 2 Diastereomer 1], the “Wirksameres Diastereomer” value was “Wirksameres Diastereomer”.

Molecule `C#CC(O)[C@H]1CN(c2ccc3c(c2)OCc2nccn2-3)C(=O)O1` (single isomer, unassigned) [Beispiel 2] has an MIC of 1 µg/mL (≈ 3.21 µM).
